Columns and labels:
[1] = tested on: morningglory; assay: Test A preemergence; format: in vivo, Ipomoea spp.; details: for pest or weed control at 500 g/ha / pest or weed control at 125 g/ha: Ipomoea, pre-emergence, 240 h, read-out: Morningglory plant response rating
Procedure, shortened: (§1)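 Greenhouse pot test, loam/sand soil. Formulation: non-phytotoxic solvent mix plus surfactant. Pre: directed spray onto soil after sowing. Post: plants at 1–2 leaf, 2–10 cm. Rated visually vs untreated controls at ~10 d, 0 (no effect) to 100 (complete control).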

[2] = tested on: wheat; assay: Test A preemergence; format: in vivo, Triticum aestivum; details: for plant injury at 125 g/ha / plant injury at 500 g/ha: Triticum aestivum, pre-emergence, 240 h, read-out: Wheat plant response rating
Procedure, shortened: as §1

[3] = tested on: velvetleaf; assay: Test A postemergence; format: in vivo, Abutilon theophrasti; details: for pest or weed control at 500 g/ha / pest or weed control at 125 g/ha: Abutilon theophrasti, post-emergence, 240 h; for pest or weed control at 500 g/ha: read-out: Plant response rating Velvetleaf; for pest or weed control at 125 g/ha: read-out: Plant response rating, Velvetleaf
Procedure, shortened: as §1

[4] = tested on: sedge, umbrella; assay: Test B flooded paddy test; format: in vivo, Cyperus difformis; details: Flood, 250 g ai/ha, 0 to 100 scale where 0 is no effect and 100 is complete control; for pest or weed control at 250 g/ha: Cyperus difformis, read-out: Plant response rating, Sedge, Umbrella
Procedure, shortened: (§2)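 Plants at 2-leaf stage; pots flooded to 3 cm above soil and compound applied directly into paddy water, depth held throughout. After 13 to 15 days in greenhouse, visual rating versus controls on 0 (no effect) to 100 (complete control) scale.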

[5] = tested on: barnyardgrass; assay: Test B flooded paddy test; format: in vivo, Echinochloa crus-galli; details: Flood, 250 g ai/ha, 0 to 100 scale where 0 is no effect and 100 is complete control; for pest or weed control at 250 g/ha: Echinochloa crus-galli, read-out: Plant response rating, Barnyardgrass
Procedure, shortened: as §2

[6] = tested on: corn; assay: Test C preemergence; format: in vivo, Zea mays; details: Zea mays, pre-emergence; for plant injury at 62 g/ha: 62 g ai/ha; for plant injury at 62 g/ha / plant injury at 125 g/ha / plant injury at 250 g/ha: preemergence, scale 0 (no effect) to 100 (complete control), read-out: Corn plant response rating; for plant injury at 125 g/ha: 125 g ai/ha; for plant injury at 250 g/ha: 250 g ai/ha; for Corn plant response rating (crop injury, 0 = no effect, 100 = complete kill) at 31 g/ha: Preemergence, 31 g ai/ha, scale 0 to 100, 0 no effect, 100 complete control
Source text: (§3) Seeds of plant species selected from blackgrass (Alopecurus myosuroides), Italian ryegrass (Lolium multiflorum), wheat, winter (winter wheat, Triticum aestivum), galium (catchweed bedstraw, Galium aparine), corn (Zea mays), large (Lg) crabgrass (Digitaria sanguinalis), giant foxtail (Setaria faberii), johnsongrass (Sorghum halepense), lambsquarters (Chenopodium album), morningglory (Ipomoea coccinea), yellow nutsedge (Cyperus esculentus), pigweed (Amaranthus retroflexus), ragweed (common ragweed, Ambrosia elatior), soybean (Glycine max), barnyardgrass (Echinochloa crus-galli), oilseed rape (Brassica napus), waterhemp (common waterhemp, Amaranthus rudis), kochia (Kochia scoparia), wild oat (Avena fatua), surinam grass (Brachiaria decumbens), foxtail, green (green foxtail, Setaria viridis), goosegrass (Eleusine indica), bromegrass, downy (downy bromegrass, Bromus tectorum), nightshade (eastern black nightshade, Solanum ptycanthum), cocklebur (common cocklebur, Xanthium strumarium), cupgrass, woolly (woolly cupgrass, Eriochloa villosa), bermudagrass (Cynodon dactylon), sunflower, (common oilseed sunflower, Helianthus annuus), Russian thistle (Salsola kali), and velvetleaf (Abutilon theophrasti) were planted into a blend of loam soil and sand and treated preemergence with test chemicals formulated in a non-phytotoxic solvent mixture which included a surfactant.
(§4) At the same time, plants selected from these crop and weed species and also barley, winter (winter barley, Hordeum vulgare), windgrass (Apera spica-venti), chickweed (common chickweed, Stellaria media), deadnettle (henbit deadnettle, Lamium amplexicaule), and canarygrass (littleseed canarygrass, Phalaris minor) were planted in pots containing Redi-Earth® planting medium (Scotts Company, 14111 Scottslawn Road, Marysville, Ohio 43041) comprising spaghnum peat moss, vermiculite, wetting agent and starter nutrients and treated with postemergence applications of test chemicals formulated in the same manner. Plants ranged in height from 2 to 18 cm (1- to 4-leaf stage) for postemergence treatments. Treated plants and controls were maintained in a greenhouse for 13 to 15 days, after which time all species were compared to controls and visually evaluated. Plant response ratings, summarized in Table C, are based on a scale of 0 to 100 where 0 is no effect and 100 is complete control. A dash (-) response means no test result.

[7] = tested on: giant foxtail; assay: Test C preemergence; format: in vivo, Setaria faberii; details: Setaria faberi, pre-emergence; for pest or weed control at 62 g/ha: 62 g ai/ha; for pest or weed control at 62 g/ha / pest or weed control at 125 g/ha / pest or weed control at 250 g/ha: preemergence, scale 0 (no effect) to 100 (complete control), read-out: Foxtail, Giant plant response rating; for pest or weed control at 125 g/ha: 125 g ai/ha; for pest or weed control at 250 g/ha: 250 g ai/ha; for pest or weed control at 31 g/ha: Preemergence, 31 g ai/ha, scale 0 to 100, 0 no effect, 100 complete control, read-out: Plant response rating, Foxtail, Giant
Source text: as §3, §4

[8] = tested on: large (Lg) crabgrass; assay: Test C postemergence; format: in vivo, Digitaria sanguinalis; details: Digitaria sanguinalis, post-emergence; for pest or weed control at 125 g/ha: 125 g ai/ha; for pest or weed control at 125 g/ha / pest or weed control at 250 g/ha: postemergence, read-out: Plant response rating (0 to 100), Crabgrass, Large; for pest or weed control at 250 g/ha: 250 g ai/ha; for pest or weed control at 31 g/ha / pest or weed control at 62 g/ha: Postemergence, scale 0 to 100 (0 no effect, 100 complete control), read-out: Plant response rating, Crabgrass, Large; for pest or weed control at 31 g/ha: 31 g ai/ha, 13 to 15 days; for pest or weed control at 62 g/ha: 62 g ai/ha
Source text: as §3, §4

[9] = tested on: soybean; assay: Test C postemergence; format: in vivo, Glycine max; details: Glycine max, post-emergence; for Soybean plant response rating (crop injury, 0-100 scale) at 125 g/ha: 125 g ai/ha, read-out: Plant response rating (0 to 100), Soybean; for Soybean plant response rating (crop injury, 0-100 scale) at 125 g/ha / Soybean plant response rating (crop injury, 0-100 scale) at 250 g/ha: postemergence; for Soybean plant response rating (crop injury, 0-100 scale) at 250 g/ha: 250 g ai/ha; for Soybean plant response rating (crop injury, 0-100 scale) at 31 g/ha / Soybean plant response rating (crop injury, 0-100 scale) at 62 g/ha: Postemergence, scale 0 to 100 (0 no effect, 100 complete control); for Soybean plant response rating (crop injury, 0-100 scale) at 31 g/ha: 31 g ai/ha, 13 to 15 days; for Soybean plant response rating (crop injury, 0-100 scale) at 62 g/ha: 62 g ai/ha
Source text: as §3, §4

[10] = tested on: velvetleaf; assay: Test C postemergence; format: in vivo, Abutilon theophrasti; details: Abutilon theophrasti, post-emergence; for pest or weed control at 125 g/ha: 125 g ai/ha; for pest or weed control at 125 g/ha / pest or weed control at 250 g/ha: postemergence, read-out: Plant response rating (0 to 100), Velvetleaf; for pest or weed control at 250 g/ha: 250 g ai/ha; for pest or weed control at 31 g/ha / pest or weed control at 62 g/ha: Postemergence, scale 0 to 100 (0 no effect, 100 complete control), read-out: Plant response rating, Velvetleaf; for pest or weed control at 31 g/ha: 31 g ai/ha, 13 to 15 days; for pest or weed control at 62 g/ha: 62 g ai/ha
Source text: as §3, §4

[11] = 500 g ai/ha, 0 to 100 scale, 0 no effect, 100 complete control, approx. 10 days
[12] = 125 g ai/ha, 0 to 100 scale where 0 is no effect and 100 is complete control
[13] = 500 g ai/ha, 0 to 100 scale, 0 no effect, 100 complete control

Compound	pest or weed control at 500 g/ha [1, 11]	plant injury at 125 g/ha [2, 12]	plant injury at 500 g/ha [2, 11]	pest or weed control at 500 g/ha [3, 13]	pest or weed control at 250 g/ha [4]	pest or weed control at 250 g/ha [5]	pest or weed control at 125 g/ha [1, 12]	pest or weed control at 125 g/ha [3, 12]	plant injury at 62 g/ha [6]	plant injury at 125 g/ha [6]	plant injury at 250 g/ha [6]	Corn plant response rating (crop injury, 0 = no effect, 100 = complete kill) at 31 g/ha [6]	pest or weed control at 62 g/ha [7]	pest or weed control at 125 g/ha [7]	pest or weed control at 250 g/ha [7]	pest or weed control at 31 g/ha [7]	pest or weed control at 125 g/ha [8]	pest or weed control at 250 g/ha [8]	pest or weed control at 31 g/ha [8]	pest or weed control at 62 g/ha [8]	other results
FC(F)(F)c1ccn(-c2ccccc2Oc2ncc(Cl)cn2)n1 [Compound 2, 5-chloro-2-[2-[3-(trifluoromethyl)-1H-pyrazol-1-yl]phenoxy]pyrimidine]	20%	0%	0%	60%	0%	0%	–	–	–	–	–	–	–	–	–	–	–	–	–	–	–
Clc1cnc(Oc2ccccc2-n2cc(Cl)cn2)nc1 [Compound 3]	–	–	–	–	–	–	–	–	–	–	–	–	–	–	–	–	–	–	–	–	Morningglory plant response rating [1, 12]: 0; Morningglory plant response rating [1, 11]: 20; Wheat plant response rating [2, 12]: 0; Wheat plant response rating [2, 11]: 10; Plant response rating, Velvetleaf [3, 12]: 100; Plant response rating, Velvetleaf [3, 13]: 100; Plant response rating, Sedge, Umbrella [4]: 75; Plant response rating, Barnyardgrass [5]: 0
Clc1cnc(Oc2ccccc2-n2cc(Br)cn2)nc1 [Compound 7, 2-[2-(4-bromo-1H-pyrazol-1-yl)phenoxy]-5-chloropyrimidine]	70%	0%	20%	100%	75%	30%	20%	100%	5%	5%	5%	0%	80%	98%	100%	40%	10%	20%	5%	5%	Soybean plant response rating (crop injury, 0-100 scale) at 125 g/ha [9]: 98%; Soybean plant response rating (crop injury, 0-100 scale) at 250 g/ha [9]: 98%; Soybean plant response rating (crop injury, 0-100 scale) at 31 g/ha [9]: 85%; Soybean plant response rating (crop injury, 0-100 scale) at 62 g/ha [9]: 98%; pest or weed control at 125 g/ha [10]: 85%; pest or weed control at 250 g/ha [10]: 85%; pest or weed control at 31 g/ha [10]: 40%; pest or weed control at 62 g/ha [10]: 50%
Fc1cnc(Oc2ccccc2-n2cc(Br)cn2)nc1 [Compound 10, 2-[2-(4-bromo-1H-pyrazol-1-yl)phenoxy]-5-fluoropyrimidine]	60%	0%	20%	100%	50%	0%	40%	100%	–	–	–	–	–	–	–	–	5%	35%	5%	5%	Soybean plant response rating (crop injury, 0-100 scale) at 125 g/ha [9]: 85%; Soybean plant response rating (crop injury, 0-100 scale) at 250 g/ha [9]: 95%; Soybean plant response rating (crop injury, 0-100 scale) at 31 g/ha [9]: 50%; Soybean plant response rating (crop injury, 0-100 scale) at 62 g/ha [9]: 75%; pest or weed control at 125 g/ha [10]: 70%; pest or weed control at 250 g/ha [10]: 90%; pest or weed control at 31 g/ha [10]: 50%; pest or weed control at 62 g/ha [10]: 70%
FC(F)(F)c1cnn(-c2ccccc2Oc2ncc(Br)cn2)c1 [Compound 18, 5-bromo-2-[2-[4-(trifluoromethyl)-1H-pyrazol-1-yl]phenoxy]pyrimidine]	40%	–	70%	100%	90%	30%	–	100%	10%	10%	35%	0%	100%	100%	100%	65%	–	–	–	–	Plant response rating, Morningglory [1, 12]: 0; Plant response rating, Wheat [2, 12]: 0

From patent US9695155B2, “Herbicidal substituted pyrimidinyloxy benzene compounds” (E. I. DU PONT DE NEMOURS AND COMPANY, priority 2013, dated 2017)
